# Results taken from patent EP0232423A1, “CIRCULATION IMPROVING AGENT” (GRELAN PHARMACEUTICAL CO., LTD., priority 1985, dated 1987).
# Where a name gives a salt, the structure may show the parent alone.
# Columns and labels:
# ddY male mice [1] = experiment: Prolongation of gasping time in complete cerebral ischemic (decapitated) animals; assay type: in vivo; details: for Ratio of time (%): prolongation as compared with the control group; for Duration time of gasping: decapitated after 30 minutes
# Experimental: After 30 minutes from administration, the.mice were decapitated and the duration time of gasping was measured. The control group was drug-untreated.
# isolated femoral artery [2] = experiment: K-induced 45Ca influx in isolated femoral artery; assay type: cell-based, Mongrel dogs; details: 10^-5 M + 50 mM KCl
# Source text: (§1) Using the isolated basilar artery and femoral artery treated in accordance with Test Example 2, the activity of (a) compound (I) (lactate), (b) ifenprodil tartrate and (c) verapamil hydrochloride against ^45Ca influx and ^45Ca uptake were examined by the conventional method (J. Membran. Biol., vol. 59, page 19, 1981).
# isolated basilar artery [3] = experiment: PGF2α-induced 45Ca uptake in isolated basilar artery; assay type: cell-based, Mongrel dogs; details: 10^-5 M + 10^-5 M PGF2α; PGF2α alone 166.2 ± 6.0
# Source text: as §1
# isolated femoral artery [4] = experiment: K-induced 45Ca uptake in isolated femoral artery; assay type: cell-based, Mongrel dogs; details: 50 mM KCl alone 586.0 ± 17.9
# Source text: as §1
# isolated basilar artery [5] = experiment: Relaxation of isolated basilar artery contracted by 50 mM KCl; assay type: cell-based, Mongrel dogs; details: Canis lupus familiaris, 50 mM KCl contraction; for inhibition at 1 µM: 10^-6 M; for inhibition at 0.1 µM: 10^-7 M; for inhibition at 0.01 µM: 10^-8 M; for EC50: relaxation of isolated basilar artery, read-out: ED50 (the source's name)
# Experimental: (§2) Mongrel dogs of either sex (body weight 10-17 kg) were killed by bleeding under anesthetization with pentobarbital sodium (tradename: Nembutai ® Abbott Co., USA). Thereafter, the basilar and femoral arteries were extracted and attached blood and connective tissues were carefully removed in a dish filled with Krebs bicarbonate solution (composition: NaCl 117.7 mM, KC1 4.7 mM, CaCl2 2.5 mM, MgSo4 1.2 mM, glucose 10 mM, NaHCO3 24.4 mM). Thereafter, ring preparations were made therefrom. This preparation was suspended in a bathing tube of 10 ml filled with Krebs bicarbonate solution aerated with 95 % 02 and 5 % C02.
# (§3) Then, samples of basilar and femoral arteries were contracted by application of 50 mM KC1. After confirming that the contraction was sustained, (a) compound (I) (erythro form) lactate, (b) compound (I) (threo form) lactate and (c) ifenprodil; [2-(4-benzyl- piperidino-l-(4-hydroxyphenyl)propane-l-ol] tartrate were, respectively, administered as test compounds and the dose-relaxation response was examined.
# (§4) A strain gauge transducer (model SB-lT manufactured by Nihon Koden Co.) was employed for recording of change of tension and isometric contraction was recorded on a recorder (model QPD 53 made by Hitachi Ltd . ) .
# isolated femoral artery [6] = experiment: Relaxation of isolated femoral artery contracted by 50 mM KCl; assay type: cell-based, Mongrel dogs; details: Canis lupus familiaris, 50 mM KCl contraction; for inhibition at 100 µM: 10^-4 M; for inhibition at 10 µM: 10^-5 M; for inhibition at 1 µM: 10^-6 M; for inhibition at 0.1 µM: 10^-7 M; for EC50: relaxation of isolated femoral artery, read-out: ED50 (the source's name)
# Experimental: as §2, §3, §4
# α2-adrenoceptor = experiment: Antagonism of clonidine (α2-agonist) contraction in saphenous vein; assay type: cell-based, Mongrel dogs; details: α2 - agonist: clonidine, non-competitive antagonism, 15 min
# Source text: (§5) In this experiment, phenylephrine and clonidine were used as al-agonist and a2-agonist, respectively, and these agonists were cumulatively applied to obtain a dose-response curve.
# isolated basilar artery [7] = experiment: Ca antagonistic action: Ca-induced contraction in K-depolarized basilar artery; assay type: cell-based, Mongrel dogs; details: Canis lupus familiaris, 0.25 h, 50 mM KCl, Ca-free bath, cumulative CaCl2, compound applied 15 minutes before, read-out: pA2 values on Ca-induced contraction in depolarized muscle by K (converted)
# Experimental: (§6) The same measurements as in Test Example 2 were carried out using the isolated basilar artery and isolated femoral artery treated in accordance with the method of Test Example 2.
# (§7) For examination of the Ca antagonistic action, the depolarization of both isolated arteries was induced with 50 mM KC1 in a bathing solution from which Ca had been removed and then CaCl2 was cumulatively applied thereto. As test compounds, (a) compound (I) (erythro form) lactate and (b) ifenprodil tartrate were applied at 15 minutes before addition of CaCl2.
# isolated coronary artery = experiment: Relaxation of isolated coronary artery; assay type: cell-based, Mongrel dogs; details: Canis lupus familiaris, read-out: ED50 (the source's name)
# Experimental: as §2, §3, §4
# Experiments were conducted in accordance with the method of Test Example 2 with use of the coronary artery in place of the basilar and femoral arteries. […]
# platelets of rabbit = experiment: Fluidity of platelet membrane (fluorescence polarization); assay type: cell-based; set-up: Fluorescence polarization: unit not given here; details: for Fluorescence polarization: fluidity increases as value decreases
# Source text: The activity of compound (I) (lactate) and ifenprodil tartrate against the fluidity of platelet membrane was examined according to a known method (Biochimica et Biophysica Acta, vol. 798, page 210, 1984) using platelets of rabbit and using n-butyl alcohol as a positive control.
# α1-adrenoceptor = experiment: Antagonism of phenylephrine (α1-agonist) contraction in saphenous vein; assay type: cell-based, Mongrel dogs; details: α1 - agonist: phenylephrine; saphenous vein; 15 minutes treatment
# Source text: as §5
# ddY male mice [8] = experiment: Ameliorative activity against damage of cerebral hypoxia (reduced pressure); assay type: in vivo; details: for Time required for stoppage of respiration: 30 minutes before, pressure reduced to 160 mmHg
# Experimental: Thirty mg/kg each of compound (I) (lactate) and ifenprodil tartrate and 16 mg/kg of phentolamine, which is an a-adrenoceptor blocker, were intraperitoneally administered to ddY male mice, respectively. […] Time from start of reduction of pressure until stop of respiration in the mice was measured. The control group was drug-untreated.
# isolated femoral artery [9] = experiment: Ca antagonistic action: Ca-induced contraction in K-depolarized femoral artery; assay type: cell-based, Mongrel dogs; details: Canis lupus familiaris, 0.25 h, 50 mM KCl, Ca-free bath, cumulative CaCl2, compound applied 15 minutes before, read-out: pA2 values on Ca-induced contraction in depolarized muscle by K (converted)
# Experimental: as §6, §7
# ddY male mice [10] = experiment: Thromboembolic respiratory depression induced by ADP; assay type: in vivo; details: ADP 40 mg/kg i.v.
# Experimental: The degree of formation of platelet thrombi in the pulmonary vessels of mice induced by intravenous administration of ADP can be measured based on the decrease in the respiratory rate. The anti-platelet thrombotic action of test drugs can be evaluated by using this decrease in the respiratory rate as a standard. […] Relative respiratory rate (%) was calculated according to the following formula. [formula] (cf. "Thrombosis Research", Vol. 35, Page 311, 1984)
# [11] = pre-incubation 15 min, 50 mM KCl alone 94.6 ± 5.2
# [12] = pre-incubation 45 min, 50 mM KCl alone 98.4 ± 6.8
smiles,measurement,setting,value
CC(C)(CO)[C@@H](O)C(=O)NCCCC(=O)O [Calcium hopantenate],Ratio of time (%),ddY male mice [1]; 300 mg/kg i.p.,10.5%
same,Duration time of gasping,ddY male mice [1]; 300 mg/kg intraperitoneally,23.1 ± 0.6 s
COc1ccc(CCN(C)CCCC(C#N)(c2ccc(OC)c(OC)c2)C(C)C)cc1OC (stereo not drawn) [Verapamil hydrochloride],K-induced ^45Ca influx in isolated femoral artery,isolated femoral artery [2]; [11],76.7 ± 2.0 n mol/g wt. tissue
same,K-induced ^45Ca influx in isolated femoral artery,isolated femoral artery [2]; [12],29.8 ± 2.8 n mol/g wt. tissue
same,K-induced ^45Ca influx in isolated femoral artery,isolated femoral artery [2]; pre-incubation 135 min,64.1 ± 5.0 n mol/g wt. tissue
same,PGF2α-induced ^45Ca uptake in isolated basilar artery,isolated basilar artery [3],134.0 ± 4.1 n mol/g wt. tissue
same,K-induced ^45Ca uptake in isolated femoral artery,isolated femoral artery [4]; 10^-5 M + 50 mM KCl,344.7 ± 14.4 n mol/g wt. tissue
C[C@@H]([C@H](O)c1ccc(OCc2ccccc2)cc1)N1CCC(Cc2ccccc2)CC1 (relative stereo) [Compound (I) (erythro form) lactate],inhibition at 1 µM,"isolated basilar artery [5]; mean, n = 4 - 5",100%
same,inhibition at 0.1 µM,"isolated basilar artery [5]; mean, n = 4 - 5",39.2%
same,inhibition at 0.01 µM,"isolated basilar artery [5]; mean, n = 4 - 5",7%
same,EC50,isolated basilar artery [5],160 nM
same,inhibition at 100 µM,"isolated femoral artery [6]; mean, n = 4 - 5",85.8%
same,inhibition at 10 µM,"isolated femoral artery [6]; mean, n = 4 - 5",59.9%
same,inhibition at 1 µM,"isolated femoral artery [6]; mean, n = 4 - 5",34.2%
same,inhibition at 0.1 µM,"isolated femoral artery [6]; mean, n = 4 - 5",1.2%
same,inhibition at 0.01 µM,"isolated femoral artery [6]; 10^-8 M, mean, n = 4 - 5",0.4%
same,EC50,isolated femoral artery [6],7200 nM
CC(C(O)c1ccc(OCc2ccccc2)cc1)N1CCC(Cc2ccccc2)CC1 (stereo not drawn) [Compound (I) lactate],pD2' value,α2-adrenoceptor,pD2' = 4.87^Note 4)
same,K-induced ^45Ca influx in isolated femoral artery,isolated femoral artery [2]; [11],106.2 ± 4.1 n mol/g wt. tissue
same,K-induced ^45Ca influx in isolated femoral artery,isolated femoral artery [2]; [12],38.2 ± 2.6 n mol/g wt. tissue
same,K-induced ^45Ca influx in isolated femoral artery,isolated femoral artery [2]; pre-incubation 135 min,28.3 ± 1.1 n mol/g wt. tissue
same,Ratio of time (%),ddY male mice [1]; 3 mg/kg i.p.,3.8%
same,Duration time of gasping,ddY male mice [1]; 3 mg/kg intraperitoneally,21.7 ± 0.4 s
same,Ratio of time (%),ddY male mice [1]; 10 mg/kg i.p.,27.8%
same,Duration time of gasping,ddY male mice [1]; 10 mg/kg intraperitoneally,26.7 ± 1.8 s
same,Ratio of time (%),ddY male mice [1]; 30 mg/kg i.p.,116.3%
same,Duration time of gasping,ddY male mice [1]; 30 mg/kg intraperitoneally,45.2 ± 3.5 s
same,Kb,isolated basilar artery [7],18.6 nM
same,EC50,isolated coronary artery,2200 nM
same,PGF2α-induced ^45Ca uptake in isolated basilar artery,isolated basilar artery [3],135.2 ± 12.7 (*) n mol/g wt. tissue
same,K-induced ^45Ca uptake in isolated femoral artery,isolated femoral artery [4]; 10^-4 M + 50 mM KCl,378.8 ± 27.9 n mol/g wt. tissue
same,K-induced ^45Ca uptake in isolated femoral artery,isolated femoral artery [4]; 10^-5 M + 50 mM KCl,461.4 ± 26.7 n mol/g wt. tissue
same,K-induced ^45Ca uptake in isolated femoral artery,isolated femoral artery [4]; 10^-6 M + 50 mM KCl,724.4 ± 32.4 n mol/g wt. tissue
same,effect on fluidity of platelet membrane,platelets of rabbit,an increase in the fluitidy of platelet membrane
same,pA2 value,α1-adrenoceptor,pA2 = 7.03 ± 0.04
same,Time required for stoppage of respiration,ddY male mice [8]; 30 mg/kg intraperitoneally,126.1 ± 12.1 s
same,Kb,isolated femoral artery [9],1550 nM
COc1ccc([C@@H]2Sc3ccccc3N(CCN(C)C)C(=O)[C@@H]2OC(C)=O)cc1 [Diltiazem-HCl],Relative respiratory rate (%),"ddY male mice [10]; 10 mg/kg oral, 1 hr after administration",56.3 ±8.5 (n=6) %
same,Relative respiratory rate (%),"ddY male mice [10]; 10 mg/kg oral, 2 hr after administration",38.3 ±7.3 (n=7) %
Cc1ccc(N(CC2=NCCN2)c2cccc(O)c2)cc1 [Phentolamine],Time required for stoppage of respiration,ddY male mice [8]; 16 mg/kg intraperitoneally,54.5 ± 2.9 s
same,effect on survival time (cerebral hypoxia),"ddY male mice [8]; i.p., 30 mg/kg compound (I) and ifenprodil tartrate, 16 mg/kg phentolamine",shortens it
C[C@@H]([C@@H](O)c1ccc(OCc2ccccc2)cc1)N1CCC(Cc2ccccc2)CC1 (relative stereo) [Compound (I) (threo form) lactate],inhibition at 10 µM,"isolated basilar artery [5]; 10^-5 M, mean, n = 4 - 5",100%
same,inhibition at 1 µM,"isolated basilar artery [5]; mean, n = 4 - 5",91.7%
same,inhibition at 0.1 µM,"isolated basilar artery [5]; mean, n = 4 - 5",72.1%
same,inhibition at 0.01 µM,"isolated basilar artery [5]; mean, n = 4 - 5",10.8%
same,EC50,isolated basilar artery [5],85 nM
same,inhibition at 100 µM,"isolated femoral artery [6]; mean, n = 4 - 5",62.3%
same,inhibition at 10 µM,"isolated femoral artery [6]; mean, n = 4 - 5",22.5%
same,inhibition at 1 µM,"isolated femoral artery [6]; mean, n = 4 - 5",6.8%
same,inhibition at 0.1 µM,"isolated femoral artery [6]; mean, n = 4 - 5",0%
same,EC50,isolated femoral artery [6],51000 nM
OC[C@H]1OC(O)[C@H](O)[C@@H](O)[C@@H]1O (stereo partly drawn) [Glucose],Ratio of time (%),ddY male mice [1]; 5.4 g/kg i.p.,10.5%
same,Duration time of gasping,ddY male mice [1]; 5.4 g/kg intraperitoneally,23.1 ± 0.6 s
Clc1ccccc1CN1CCc2sccc2C1 [Ticlopidine-HCl],Relative respiratory rate (%),"ddY male mice [10]; 30 mg/kg oral, 1 hr after administration, Compound (I) = erythro form",49.3 ±4.3 (n=6) %
same,Relative respiratory rate (%),"ddY male mice [10]; 30 mg/kg oral, 2 hr after administration, Compound (I) = erythro form",33.9 ±7.0 (n=7) %
same,Relative respiratory rate (%),"ddY male mice [10]; 30 mg/kg oral, 3 hr after administration, Compound (I) = erythro form",37.2 ±10.5 (n=9) %
"CCCCO [n-Butyl alcohol, n-butyl alcohol]",effect on fluidity of platelet membrane,platelets of rabbit,an increase in the fluitidy of platelet membrane
same,Fluorescence polarization,platelets of rabbit; 21 µM,7±5
same,Fluorescence polarization,platelets of rabbit; 42 µM,6±5
same,Fluorescence polarization,platelets of rabbit; 62 µM,-14±2
